Reference: patent US20070015174A1, “High throughput formulation screening of drug candidates” (priority 2005, published 2007)
Values after ≈ are worked out from the molar mass of the structure shown. Where two headings read alike, the source gives them in different places.

Key:
[1] = High throughput formulation screening: solubility of compound in 96 formulations (5 μL scale, image capture); type: physicochemical; conditions: for solubility: thermodynamic from solid
Protocol: The solubility of the compound in the various excipients is then evaluated by comparing the captured images (e.g., first, second, third, and fourth images). […] All stock solutions were prepared with ultrapure ASTM Type I water and sterile-filtered using a 0.22 micron filter. The solutions were then attached to the MATRIX MAKER liquid-handling robot for sterile path, positive pressure dispensation into an SBS (Society for Biomolecular Screening) standard-sized 96 deep well plates. The screening formulations are defined in the CRYSTAL MINER software, which drives the MATRIX MAKER and allows for the rapid development of refinement screens for the optimization of lead hits. Once the formulations have been dispensed, the plate is sealed and centrifuged at 2000 rpm to ensure that each well contains a homogeneous solution. […] The DROP MAKER micro-scale liquid handler then dispenses 5 μL of the compound solution into a 96-well SBS format plate. […] Images were then captured of each well by the CRYSTAL MONITOR workstation (Session 1). Then 5 μL of each formulation screening solution were added to separate wells and images were captured for each well (Session 2) as above. Following image capture, the plate was heated to 45° C. for 30 minutes, then agitated for 10 minutes at room temperature during cool down. Additional images are captured on day one (t=1, Session 3) and day three (t=3, Session 4). Images and data annotation are exported to Excel for final report generation. The solubility of triclocarban in the formulations screening set (96 conditions) was obtained after the high throughput screening at target solubility of 10 mg/mL by the method described above: […]

[2] = cited from earlier work

solubility in formulation ([1]; 10 mg/mL, IV dosing solution PEG 300/polysorbate 80/EtOH/SGF (40/5/5/50)): nearly completely dissolved | solubility in formulation ([1]; 10 mg/mL, IV dosing solution PEG 300/polysorbate 80/SGF (45/5/50)): nearly completely dissolved | solubility in formulation ([1]; 10 mg/mL, NMP/polysorbate 80 (9/1)): easily dissolved | solubility in formulation ([1]; 10 mg/mL, PEG 300/polysorbate 80 (9/1)): easily dissolved | solubility in formulation ([1]; 10 mg/mL, PEG 400/polysorbate 80/EtOH (8/1/1)): easily dissolved | solubility in formulation ([1]; 10 mg/mL, PEG 400/polysorbate (3/1)): easily dissolved | solubility in formulation ([1]; 10 mg/mL, SEDDS carpryol 90/PEG 400/cremophor EL (4/3/3)): dissolved | solubility in formulation ([1]; 10 mg/mL, SEDDS labrafac CC/imwitor 988/cremophor (25/27/48)): dissolved | solubility in formulation ([1]; 10 mg/mL, SEDDS sesame oil/maisine 35-1/polysorbate 80 (25/27/48)): dissolved | solubility in formulation ([1]; 10 mg/mL, SEDDS soybean oil/maisine 35-1/polysorbate 80/EtOH (35/20/35/10)): dissolved | solubility in formulation ([1]; 10 mg/mL, cosolvent PEG 400/EtOH (7/3)): easily dissolved | solubility in formulation ([1]; 10 mg/mL, cosolvent PEG 400/EtOH/PG (4/1/5)): easily dissolved | solubility ([1]; Carpryol 90 (formulation screening solution), oil or lipid, target 10 mg/mL, Carpryol 90): ~10000 µg/mL (≈ 31.7 mM) | solubility ([1]; Cremophor EL (formulation screening solution), aqueous with cosolvent or surfactant or cyclodextrin, target 10 mg/mL, Cremophor EL): ~10000 µg/mL (≈ 31.7 mM) | solubility ([1]; Labrafil M 1944 CS (formulation screening solution), oil or lipid, target 10 mg/mL, Labrafil M 1944 CS): ~10000 µg/mL (≈ 31.7 mM) | solubility ([1]; Labrasol (formulation screening solution), aqueous with cosolvent or surfactant or cyclodextrin, target 10 mg/mL, Labrasol): ~10000 µg/mL (≈ 31.7 mM) | solubility ([1]; N-methyl-2-pyrrolidinone (formulation screening solution), organic solvent or mixture, target 10 mg/mL, N-methyl-2-pyrrolidinone): ~10000 µg/mL (≈ 31.7 mM) | solubility ([1]; Softigen 767 (formulation screening solution), aqueous with cosolvent or surfactant or cyclodextrin, target 10 mg/mL, Softigen 767): ~10000 µg/mL (≈ 31.7 mM) | solubility ([1]; lauroglycol FCC (formulation screening solution), oil or lipid, target 10 mg/mL, lauroglycol FCC): ~10000 µg/mL (≈ 31.7 mM) | solubility ([1]; peppermint oil (formulation screening solution), oil or lipid, target 10 mg/mL, peppermint oil): ~10000 µg/mL (≈ 31.7 mM) | solubility in formulation ([1]; target 10 mg/mL, 20% TPGS): partially dissolved | solubility in formulation ([1]; target 10 mg/mL, Capmul MCM C8): dissolve TCC completely | solubility in formulation ([1]; target 10 mg/mL, HPbCD): partially dissolved | solubility in formulation ([1]; target 10 mg/mL, Imwitor 988): dissolve TCC completely | solubility in formulation ([1]; target 10 mg/mL, PEG 300): dissolve TCC completely | solubility in formulation ([1]; target 10 mg/mL, PEG 400): dissolve TCC completely | solubility in formulation ([1]; target 10 mg/mL, Polysorbate 80): dissolve TCC completely | solubility in formulation ([1]; target 10 mg/mL, RMbCD): partially dissolved | solubility in formulation ([1]; target 10 mg/mL, adjustment of pH to between 2 and 10): no effect | solubility in formulation ([1]; target 10 mg/mL, corn oil): partially dissolved | solubility in formulation ([1]; target 10 mg/mL, dimethylacetamide): dissolve TCC completely | solubility in formulation ([1]; target 10 mg/mL, imwitor 380): partially dissolved | solubility in formulation ([1]; target 10 mg/mL, labrafac CC): partially dissolved | solubility in formulation ([1]; target 10 mg/mL, maisine 35-1): partially dissolved | solubility in formulation ([1]; target 10 mg/mL, neobee M-5): partially dissolved | solubility in formulation ([1]; target 10 mg/mL, oleic acid): partially dissolved | solubility in formulation ([1]; target 10 mg/mL, soybean oil): partially dissolved
SMILES: O=C(Nc1ccc(Cl)cc1)Nc1ccc(Cl)c(Cl)c1 [TCC, 3,4,4′-trichlorocarbanilide]
solubility in formulation ([1]; target 10 mg/mL, 20% povidone): neither glycerine, safflower oil, sesame oil, nor 20% povidone had any effect | solubility in formulation ([1]; target 10 mg/mL, glycerine): neither glycerine, safflower oil, sesame oil, nor 20% povidone had any effect | solubility in formulation ([1]; target 10 mg/mL, safflower oil): neither glycerine, safflower oil, sesame oil, nor 20% povidone had any effect | solubility in formulation ([1]; target 10 mg/mL, sesame oil): neither glycerine, safflower oil, sesame oil, nor 20% povidone had any effect | solubility ([2]; 20% RMbCD with additives): about 5 mg/mL | solubility in organic solvents ([2]; acetone): soluble | solubility in organic solvents ([2]; propylene glycol): to some extent | intrinsic solubility (S0) ([2]; pure water, room temperature): less than 50 ng/ml | solubility in water ([2]; water): water-insoluble
